Experimental data as given in US10100331B2, “Reagent for gene-drug therapeutics” (Agency for Science, Technology and Research, priority 2012, dated 2018).

How the values were obtained:
Neuro2A cells = experiment: Transfection of Neuro2A cells with PKC inhibitor; format: cell-based; settings: 2 μM, 45 min prior and after transfection; LPEI/pDNA N/P=20; 24 h
Experimental: Neuro2A cells were treated with GÖ6983 (2 μM) for 45 min prior transfection. Transfection mixture (LPEI/pDNA at N/P=20) was replaced with DMEM containing 0.5% FBS and GÖ6983 (2 μM). Representative images (acquired 24 h post transfection) were shown.

HDAC1 = HDAC1 (Homo sapiens, UniProt Q13547); settings: Targeted HDAC/Sirtuin: 1; cited from earlier work
Chain of HDAC1 (Q13547 whole entry, species assumed): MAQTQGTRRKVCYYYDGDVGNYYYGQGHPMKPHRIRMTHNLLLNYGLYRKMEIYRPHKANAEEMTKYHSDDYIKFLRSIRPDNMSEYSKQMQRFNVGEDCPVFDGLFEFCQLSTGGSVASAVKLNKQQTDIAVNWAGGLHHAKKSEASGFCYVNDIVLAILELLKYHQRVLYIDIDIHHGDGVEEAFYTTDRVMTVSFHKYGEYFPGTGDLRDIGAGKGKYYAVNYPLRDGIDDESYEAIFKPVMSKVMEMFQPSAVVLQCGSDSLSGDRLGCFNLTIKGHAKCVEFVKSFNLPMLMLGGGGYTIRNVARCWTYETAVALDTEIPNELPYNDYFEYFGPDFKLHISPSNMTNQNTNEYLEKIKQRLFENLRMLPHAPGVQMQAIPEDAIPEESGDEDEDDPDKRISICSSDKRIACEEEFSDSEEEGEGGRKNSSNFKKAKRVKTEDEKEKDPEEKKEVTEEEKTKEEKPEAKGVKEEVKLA

HDAC2 = HDAC2 (Homo sapiens, UniProt Q92769); settings: Targeted HDAC/Sirtuin: 2; cited from earlier work
Chain of HDAC2 (Q92769 whole entry): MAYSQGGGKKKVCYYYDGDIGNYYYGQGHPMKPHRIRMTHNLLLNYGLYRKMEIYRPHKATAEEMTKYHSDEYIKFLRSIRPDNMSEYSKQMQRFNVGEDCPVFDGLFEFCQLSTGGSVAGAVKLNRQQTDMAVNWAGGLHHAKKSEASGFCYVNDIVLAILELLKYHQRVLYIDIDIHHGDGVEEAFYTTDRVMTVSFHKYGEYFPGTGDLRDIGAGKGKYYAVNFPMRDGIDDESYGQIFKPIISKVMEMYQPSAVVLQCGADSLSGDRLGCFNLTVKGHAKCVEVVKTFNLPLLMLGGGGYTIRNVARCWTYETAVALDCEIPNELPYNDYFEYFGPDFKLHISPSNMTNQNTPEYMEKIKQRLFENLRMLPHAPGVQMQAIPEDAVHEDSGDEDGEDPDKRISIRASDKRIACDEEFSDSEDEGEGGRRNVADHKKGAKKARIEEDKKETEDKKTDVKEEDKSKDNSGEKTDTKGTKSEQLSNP

HDAC3 = HDAC3 (Homo sapiens, UniProt O15379); settings: Targeted HDAC/Sirtuin: 3; cited from earlier work
Chain of HDAC3 (O15379 whole entry): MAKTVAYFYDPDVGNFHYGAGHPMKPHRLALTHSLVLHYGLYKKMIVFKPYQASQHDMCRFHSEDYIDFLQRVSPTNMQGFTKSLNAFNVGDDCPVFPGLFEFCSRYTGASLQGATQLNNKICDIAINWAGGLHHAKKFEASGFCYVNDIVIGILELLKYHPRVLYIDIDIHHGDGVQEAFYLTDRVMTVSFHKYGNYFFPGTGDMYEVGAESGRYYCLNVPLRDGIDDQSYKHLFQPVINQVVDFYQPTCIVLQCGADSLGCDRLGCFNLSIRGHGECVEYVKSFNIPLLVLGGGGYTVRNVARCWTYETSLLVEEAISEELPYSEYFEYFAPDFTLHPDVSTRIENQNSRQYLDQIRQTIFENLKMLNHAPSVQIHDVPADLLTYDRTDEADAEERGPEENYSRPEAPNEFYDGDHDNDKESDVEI
Chain of HDAC3 (Q9Y618 395-489 partner limits assumed): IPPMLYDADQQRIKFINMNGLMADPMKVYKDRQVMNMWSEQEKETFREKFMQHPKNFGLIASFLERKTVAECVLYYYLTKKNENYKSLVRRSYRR

HDAC6 = target: T1, HDAC6 (Homo sapiens, UniProt Q9UBN7); settings: Targeted HDAC/Sirtuin: 6; cited from earlier work
T1 sequence (Q9UBN7 1-1215): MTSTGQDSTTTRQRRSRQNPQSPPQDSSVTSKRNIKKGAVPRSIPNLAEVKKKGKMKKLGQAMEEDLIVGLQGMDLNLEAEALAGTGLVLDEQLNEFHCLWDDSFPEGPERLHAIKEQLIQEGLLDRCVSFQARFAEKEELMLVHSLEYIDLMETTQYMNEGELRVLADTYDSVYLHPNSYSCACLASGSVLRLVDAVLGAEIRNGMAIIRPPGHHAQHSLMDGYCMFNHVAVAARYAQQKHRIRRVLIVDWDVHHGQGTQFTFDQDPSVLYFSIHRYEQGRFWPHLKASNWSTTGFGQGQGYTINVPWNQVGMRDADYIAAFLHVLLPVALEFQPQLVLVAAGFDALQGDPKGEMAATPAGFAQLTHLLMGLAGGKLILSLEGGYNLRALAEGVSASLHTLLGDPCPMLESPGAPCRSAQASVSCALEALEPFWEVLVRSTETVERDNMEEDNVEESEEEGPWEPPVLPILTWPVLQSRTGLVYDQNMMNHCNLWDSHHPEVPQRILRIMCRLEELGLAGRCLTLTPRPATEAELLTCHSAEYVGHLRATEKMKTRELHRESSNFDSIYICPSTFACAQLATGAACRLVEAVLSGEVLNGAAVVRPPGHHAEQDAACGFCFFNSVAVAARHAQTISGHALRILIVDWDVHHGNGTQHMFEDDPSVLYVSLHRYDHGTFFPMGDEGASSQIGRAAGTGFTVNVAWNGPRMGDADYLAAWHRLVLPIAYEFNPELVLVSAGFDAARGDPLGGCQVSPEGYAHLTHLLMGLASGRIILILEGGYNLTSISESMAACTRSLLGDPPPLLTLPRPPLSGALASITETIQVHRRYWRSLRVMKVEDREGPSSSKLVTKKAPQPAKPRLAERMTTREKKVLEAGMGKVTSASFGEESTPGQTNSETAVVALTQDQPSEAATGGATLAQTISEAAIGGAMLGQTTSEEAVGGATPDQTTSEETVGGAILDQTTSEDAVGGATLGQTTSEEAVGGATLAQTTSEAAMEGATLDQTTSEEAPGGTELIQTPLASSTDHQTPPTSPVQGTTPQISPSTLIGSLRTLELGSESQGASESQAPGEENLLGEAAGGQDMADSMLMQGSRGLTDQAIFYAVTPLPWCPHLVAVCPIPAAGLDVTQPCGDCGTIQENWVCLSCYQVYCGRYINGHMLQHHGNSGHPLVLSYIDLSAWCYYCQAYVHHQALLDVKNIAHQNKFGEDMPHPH

HDAC8 = target: T2, HDAC8 (Homo sapiens, UniProt Q9BY41); settings: Targeted HDAC/Sirtuin: 8; cited from earlier work
T2 sequence (Q9BY41 1-377): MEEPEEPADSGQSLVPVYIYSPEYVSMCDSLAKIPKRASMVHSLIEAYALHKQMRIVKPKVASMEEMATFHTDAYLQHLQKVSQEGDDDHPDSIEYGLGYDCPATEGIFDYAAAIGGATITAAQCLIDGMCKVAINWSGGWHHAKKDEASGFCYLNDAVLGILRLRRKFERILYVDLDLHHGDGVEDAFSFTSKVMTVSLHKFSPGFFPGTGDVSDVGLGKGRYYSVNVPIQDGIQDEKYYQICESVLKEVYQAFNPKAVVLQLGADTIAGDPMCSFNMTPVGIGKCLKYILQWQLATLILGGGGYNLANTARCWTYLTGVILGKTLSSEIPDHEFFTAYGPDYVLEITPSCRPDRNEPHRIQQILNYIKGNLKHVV

Row | Structure (SMILES) | transfection (Neuro2A cells) | IC50 (HDAC1) [µM] | IC50 (HDAC2) [µM] | IC50 (HDAC3) [µM] | IC50 (HDAC6) [µM] | IC50 (HDAC8) [µM]
1 | COc1ccc2c(c1)c(C1=C(c3c[nH]c4ccccc34)C(=O)NC1=O)cn2CCCN(C)C [GÖ6983] | substantially reduced transfection | – | – | – | – | –
2 | Nc1ccccc1NC(=O)CCCCCCC(=O)Nc1ccccc1 [BML-210] | – | 15 | 10.9 | 2.62 | – | –
3 | CCCCOc1ccc(CC(=O)NO)cc1 [Bufexamac] | – | – | – | 341 | 10.7 | 235
